A short description of the series: wn = mass fraction of the nth substance listed. To be noted: 101.3 kPa, Liquid, Vibrating tube method.

Molecules are shown by their SMILES. ± gives the expanded uncertainty stated by the source.

As a reminder, the mass density is the mass of a sample divided by its volume. Take `O=C(O)CCCCC(=O)O` [1,6-hexanedioic acid] + CCO: the mass density (283.15 K, w1 = 0.0695) was 837.4 ± 0.5 kg/m3; the mass density (303.15 K, w1 = 0.1382) is given as 852.3 ± 0.5 kg/m3; the mass density (313.15 K, w1 = 0.1853) is 870.4 ± 0.5 kg/m3.
Take `O=C(O)CCC(=O)O` [butanedioic acid] + CCO: the mass density by setting is: (283.15 K, w1 = 0.0569) 836.8 ± 0.5 kg/m3; (303.15 K, w1 = 0.1084) 843.8 ± 0.5 kg/m3; (313.15 K, w1 = 0.1419) 868.6 ± 0.5 kg/m3.

The values are drawn from the NIST ThermoML archive (doi:10.1021/acs.jced.6b00031).
